Calls of active or inactive are those of the source. No rule for the calls is given here.

The data set concerns CCRIS mutagenicity, Ames/micronucleus/aberration tests. The data set is described as follows: CCRIS mutagenicity studies.

Take `O=C(O)c1cn(C2CC2)c2cc(N3CCNCC3)c(F)cc2c1=O`: the mutagenic call is, setting by setting: (End Point: In vitro micronucleus, Test System: WTK-1 human lymphoma cells, Metabolic Activation: None) “inactive; negative”; (Test System: AMES SALMONELLA TYPHIMURIUM, Strain/Indicator: HISC3076, Metabolic Activation: NONE, Method: STANDARD PLATE) “inactive; negative”; (Test System: AMES SALMONELLA TYPHIMURIUM, Strain/Indicator: HISD3052, Metabolic Activation: NONE, Method: STANDARD PLATE) “active; positive”; (Test System: AMES SALMONELLA TYPHIMURIUM, Strain/Indicator: HISG428, Metabolic Activation: NONE, Method: STANDARD PLATE) “inactive; negative”; (Test System: AMES SALMONELLA TYPHIMURIUM, Strain/Indicator: TA92, Metabolic Activation: NONE, Method: STANDARD PLATE) “active; positive”; (Test System: AMES SALMONELLA TYPHIMURIUM, Strain/Indicator: TA94, Metabolic Activation: NONE, Method: STANDARD PLATE) “active; positive”. Further, the mutagenic call was “active; positive” (Test System: AMES SALMONELLA TYPHIMURIUM, Strain/Indicator: TA102, Metabolic Activation: NONE, Method: STANDARD PLATE); “active; positive” (Test System: AMES SALMONELLA TYPHIMURIUM, Strain/Indicator: TA103, Metabolic Activation: NONE, Method: STANDARD PLATE); “inactive; negative” (Test System: AMES SALMONELLA TYPHIMURIUM, Strain/Indicator: TA104, Metabolic Activation: NONE, Method: STANDARD PLATE); “active; positive” (Test System: AMES SALMONELLA TYPHIMURIUM, Strain/Indicator: TA2425, Metabolic Activation: NONE, Method: STANDARD PLATE); “active; positive” (Test System: AMES SALMONELLA TYPHIMURIUM, Strain/Indicator: TA2638, Metabolic Activation: NONE, Method: STANDARD PLATE); “inactive; negative” (Test System: AMES SALMONELLA TYPHIMURIUM, Strain/Indicator: TA2661, Metabolic Activation: NONE, Method: STANDARD PLATE). The mutagenic call is “active; positive” (Test System: AMES SALMONELLA TYPHIMURIUM, Strain/Indicator: TA2662, Metabolic Activation: NONE, Method: STANDARD PLATE); “inactive; negative” (Test System: AMES SALMONELLA TYPHIMURIUM, Strain/Indicator: TA2678, Metabolic Activation: NONE, Method: STANDARD PLATE); “active; positive” (Test System: CHINESE HAMSTER V-79, Strain/Indicator: V-79 (HPRT)/6-THIOGUANINE, Metabolic Activation: NONE); “active; positive” (Test System: MOUSE LYMPHOMA, Strain/Indicator: L5178Y (TK+/TK-), Metabolic Activation: NONE, Method: FLUCTUATION TEST).

Take `CC(C)(O)CCc1ccc(O)c2c(=O)c3c(O)c4c(cc3oc12)O[C@H]1OC=C[C@@]41O`: the mutagenic call was “inactive; negative” (Test System: AMES SALMONELLA TYPHIMURIUM, Strain/Indicator: TA98, Metabolic Activation: NONE, Method: STANDARD PLATE); “active; positive” (Test System: AMES SALMONELLA TYPHIMURIUM, Strain/Indicator: TA98, Metabolic Activation: RAT, LIVER, S-9, AROCLOR 1254, Method: STANDARD PLATE); “inactive; negative” (Test System: AMES SALMONELLA TYPHIMURIUM, Strain/Indicator: TA100, Metabolic Activation: NONE, Method: STANDARD PLATE); “active; positive” (Test System: AMES SALMONELLA TYPHIMURIUM, Strain/Indicator: TA100, Metabolic Activation: RAT, LIVER, S-9, AROCLOR 1254, Method: STANDARD PLATE).

Regarding `Brc1ccccc1-c1ccccc1`, the mutagenic call (Test System: AMES SALMONELLA TYPHIMURIUM, Strain/Indicator: TA98, Metabolic Activation: HAMSTER, LIVER, S-9, AROCLOR 1254, Method: PREINCUBATION) was “inactive; negative”; the mutagenic call (Test System: AMES SALMONELLA TYPHIMURIUM, Strain/Indicator: TA98, Metabolic Activation: NONE, Method: PREINCUBATION) is “inactive; negative”; the mutagenic call (Test System: AMES SALMONELLA TYPHIMURIUM, Strain/Indicator: TA98, Metabolic Activation: RAT, LIVER, S-9, AROCLOR 1254, Method: PREINCUBATION) is “inactive; negative”; the mutagenic call (Test System: AMES SALMONELLA TYPHIMURIUM, Strain/Indicator: TA100, Metabolic Activation: HAMSTER, LIVER, S-9, AROCLOR 1254, Method: PREINCUBATION) was “inactive; negative”; the mutagenic call (Test System: AMES SALMONELLA TYPHIMURIUM, Strain/Indicator: TA100, Metabolic Activation: NONE, Method: PREINCUBATION) is “inactive; negative”; the mutagenic call (Test System: AMES SALMONELLA TYPHIMURIUM, Strain/Indicator: TA100, Metabolic Activation: RAT, LIVER, S-9, AROCLOR 1254, Method: PREINCUBATION) was “inactive; negative”. Besides, the mutagenic call (Test System: AMES SALMONELLA TYPHIMURIUM, Strain/Indicator: TA1535, Metabolic Activation: HAMSTER, LIVER, S-9, AROCLOR 1254, Method: PREINCUBATION) was “inactive; negative”; the mutagenic call (Test System: AMES SALMONELLA TYPHIMURIUM, Strain/Indicator: TA1535, Metabolic Activation: NONE, Method: PREINCUBATION) is “inactive; negative”; the mutagenic call (Test System: AMES SALMONELLA TYPHIMURIUM, Strain/Indicator: TA1535, Metabolic Activation: RAT, LIVER, S-9, AROCLOR 1254, Method: PREINCUBATION) is “inactive; negative”; the mutagenic call (Test System: AMES SALMONELLA TYPHIMURIUM, Strain/Indicator: TA1537, Metabolic Activation: HAMSTER, LIVER, S-9, AROCLOR 1254, Method: PREINCUBATION) was “inactive; negative”; the mutagenic call (Test System: AMES SALMONELLA TYPHIMURIUM, Strain/Indicator: TA1537, Metabolic Activation: NONE, Method: PREINCUBATION) is “inactive; negative”; the mutagenic call (Test System: AMES SALMONELLA TYPHIMURIUM, Strain/Indicator: TA1537, Metabolic Activation: RAT, LIVER, S-9, AROCLOR 1254, Method: PREINCUBATION) is “inactive; negative”.

These data come from PubChem BioAssay AID1259407 (Chemical Carcinogenesis Research Information System (CCRIS), 2018).
